Each molecule was assayed against T1, full length AKT E17K (Homo sapiens, UniProt P31749, E17K) (assay: NanoBRET Target Engagement (TE) Assay). Settings: competitive displacement of tracer in cells, read-out: AKT1 E17K IC50.
T1 construct: host or cells: HEK-293 (ATCC CRL-1573)
Assay type: cell-based
In short: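 Compound and tracer incubated 2 h before luminescence at donor 450 nm and acceptor 600 nm, with extracellular signal inhibited. EC50 by sigmoidal variable-slope regression.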

T1 sequence (P31749 whole entry E17K): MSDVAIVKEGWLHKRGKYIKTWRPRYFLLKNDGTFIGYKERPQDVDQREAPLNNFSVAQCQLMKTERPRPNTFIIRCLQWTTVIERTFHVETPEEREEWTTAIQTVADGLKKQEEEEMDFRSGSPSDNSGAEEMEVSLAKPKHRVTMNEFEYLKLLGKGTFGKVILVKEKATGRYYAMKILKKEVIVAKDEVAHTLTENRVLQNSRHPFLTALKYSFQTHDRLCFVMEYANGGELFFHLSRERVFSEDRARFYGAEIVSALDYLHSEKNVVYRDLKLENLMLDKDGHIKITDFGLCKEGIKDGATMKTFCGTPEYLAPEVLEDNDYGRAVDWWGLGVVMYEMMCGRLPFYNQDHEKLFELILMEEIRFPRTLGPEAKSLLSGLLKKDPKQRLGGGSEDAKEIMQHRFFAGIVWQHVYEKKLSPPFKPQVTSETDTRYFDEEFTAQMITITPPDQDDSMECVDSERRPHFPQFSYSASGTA

Compound | IC50 [nM]
N#Cc1nccc(NC2CCN(Cc3ccc(-n4c(-c5cccnc5N)nc5ccc(-c6cccnc6C#N)nc54)cc3)CC2)n1 [Example 409, 4-((1-(4-(2-(2-Aminopyridin-3-yl)-5-(2-cyanopyridin-3-yl)-3H-imidazo[4,5-b]pyridin-3-yl)benzyl)piperidin-4-yl)amino)pyrimidine-2-carbonitrile] | < 15
COc1cc(F)ccc1-c1ccc2nc(-c3cccnc3N)n(-c3ccc(CN4CCC(Nc5ccnc(C#N)n5)CC4)cc3)c2n1 [Example 469, 4-((1-(4-(2-(2-Aminopyridin-3-yl)-5-(4-fluoro-2-methoxyphenyl)-3H-imidazo[4,5-b]pyridin-3-yl)benzyl)piperidin-4-yl)amino)pyrimidine-2-carbonitrile] | < 15
Cn1c(-c2ccc3nc(-c4cccnc4N)n(-c4ccc(CN5CCN(c6ccnc(C#N)n6)CC5)cc4)c3n2)cccc1=O [Example 394, 4-(4-(4-(2-(2-Aminopyridin-3-yl)-5-(1-methyl-6-oxo-1,6-dihydropyridin-2-yl)-3H-imidazo[4,5-b]pyridin-3-yl)benzyl)piperazin-1-yl)pyrimidine-2-carbonitrile] | 600 to 10000
N#Cc1nccc(NC2CCN(Cc3ccc(-n4c(-c5cccnc5N)nc5ccc(-c6ccc[nH]c6=O)nc54)cc3)CC2)n1 [Example 538, 4-((1-(4-(2-(2-Aminopyridin-3-yl)-5-(2-hydroxypyridin-3-yl)-3H-imidazo[4,5-b]pyridin-3-yl)benzyl)piperidin-4-yl)amino)pyrimidine-2-carbonitrile] | 15 to 60
N#Cc1nccc(NC2CCN(Cc3ccc(-n4c(-c5cccnc5N)nc5ccc(-c6cnn(CF)n6)nc54)cc3)CC2)n1 [Example 618, 4-((1-(4-(2-(2-Aminopyridin-3-yl)-5-(2-(fluoromethyl)-2H-1,2,3-triazol-4-yl)-3H-imidazo[4,5-b]pyridin-3-yl)benzyl)piperidin-4-yl)amino)pyrimidine-2-carbonitrile] | < 15
Cc1cccc(-c2ccc3nc(-c4cccnc4N)n(-c4ccc(CN5CCC(Nc6ccnc(C#N)n6)CC5)cc4)c3n2)n1 [Example 571, 4-((1-(4-(2-(2-Aminopyridin-3-yl)-5-(6-methylpyridin-2-yl)-3H-imidazo[4,5-b]pyridin-3-yl)benzyl)piperidin-4-yl)amino)pyrimidine-2-carbonitrile] | < 15
[2H]C([2H])([2H])N(c1ccc2nc(-c3cccnc3N)n(-c3ccc(CN4CCC(Nc5ccnc(C#N)n5)CC4)cc3)c2n1)C([2H])([2H])[2H] [Example 458, 4-((1-(4-(2-(2-Aminopyridin-3-yl)-5-(bis(methyl-d3)amino)-3H-imidazo[4,5-b]pyridin-3-yl)benzyl)piperidin-4-yl)amino)pyrimidine-2-carbonitrile] | < 15
N#Cc1nccc(NC2CCN(Cc3ccc(-n4c(-c5ccccc5)nc5ccc(-c6ccc(F)cn6)nc54)cc3)CC2)n1 [Example 577, 4-((1-(4-(5-(5-Fluoropyridin-2-yl)-2-phenyl-3H-imidazo[4,5-b]pyridin-3-yl)benzyl)piperidin-4-yl)amino)pyrimidine-2-carbonitrile] | 15 to 60
N#Cc1nccc(N2CCN(Cc3ccc(-n4c(-c5cccnc5N)nc5ccc(-c6cccnc6C#N)nc54)cc3)CC2)n1 [Example 424, 4-(4-(4-(2-(2-Aminopyridin-3-yl)-5-(2-cyanopyridin-3-yl)-3H-imidazo[4,5-b]pyridin-3-yl)benzyl)piperazin-1-yl)pyrimidine-2-carbonitrile] | 15 to 60
N#Cc1ccnc(N2C[C@@H]3C[C@H]2CN3Cc2ccc(-n3c(-c4cccnc4N)nc4ccc(-c5ccccc5)nc43)cc2)n1 [Example 377, 2-((1S,4S)-5-(4-(2-(2-Aminopyridin-3-yl)-5-phenyl-3H-imidazo[4,5-b]pyridin-3-yl)benzyl)-2,5-diazabicyclo[2.2.1]heptan-2-yl)pyrimidine-4-carbonitrile] | 60 to 600
N#Cc1nccc(N2CCN(Cc3ccc(-n4c(-c5cccnc5N)nc5ccc(-c6cccnc6)nc54)cc3)CC2)n1 [Example 432] | < 15
CC(C)(C)c1ccc2nc(-c3cccnc3N)n(-c3ccc(CN4CCC(Nc5ccnc(C#N)n5)CC4)cc3)c2n1 [Example 396, 4-((1-(4-(2-(2-Aminopyridin-3-yl)-5-(tert-butyl)-3H-imidazo[4,5-b]pyridin-3-yl)benzyl)piperidin-4-yl)amino)pyrimidine-2-carbonitrile] | 15 to 60
N#Cc1nccc(NC2CCN(Cc3ccc(-n4c(-c5cccnc5N)nc5ccc(-c6ccc(OC(F)F)cn6)nc54)cc3)CC2)n1 [Example 579, 4-((1-(4-(2-(2-Aminopyridin-3-yl)-5-(5-(difluoromethoxy)pyridin-2-yl)-3H-imidazo[4,5-b]pyridin-3-yl)benzyl)piperidin-4-yl)amino)pyrimidine-2-carbonitrile] | < 15

Same assay, conditions: competitive tracer displacement in living cells, read-out: AKT1 E17K IC50

Compound | IC50 [nM]
CN(c1ncnc(C#N)n1)C1CCN(Cc2ccc(-n3c(-c4cccnc4N)nc4ccc(-c5ccccc5)nc43)cc2)CC1 [Example 223, 4-((1-(4-(2-(2-aminopyridin-3-yl)-5-phenyl-3H-imidazo[4,5-b]pyridin-3-yl)benzyl)piperidin-4-yl)(methyl)amino)-1,3,5-triazine-2-carbonitrile] | 15 to 60
N#Cc1cccc(OC2CCN(Cc3ccc(-n4c(-c5cccnc5N)nc5ccc(-c6ccccc6)nc54)cc3)CC2)n1 [Example 7, 6-((1-(4-(2-(2-Aminopyridin-3-yl)-5-phenyl-3H-imidazo[4,5-b]pyridin-3-yl)benzyl)piperidin-4-yl)oxy)picolinonitrile] | 60 to 600
N#Cc1nccc(NC2CCN(Cc3ccc(-n4c(-c5cccnc5N)nc5ccc(C6CCCCC6)nc54)cc3)CC2)n1 [Example 264, 4-((1-(4-(2-(2-Aminopyridin-3-yl)-5-cyclohexyl-3H-imidazo[4,5-b]pyridin-3-yl)benzyl)piperidin-4-yl)amino)pyrimidine-2-carbonitrile] | < 15
N#Cc1nnccc1C(=O)NC1CCN(Cc2ccc(-n3c(-c4cccnc4N)nc4ccc(-c5ccccc5)nc43)cc2)CC1 [Example 71, N-(1-(4-(2-(2-Aminopyridin-3-yl)-5-phenyl-3H-imidazo[4,5-b]pyridin-3-yl)benzyl)piperidin-4-yl)-3-cyanopyridazine-4-carboxamide] | 15 to 60
N#Cc1ccc(OC2CCN(Cc3ccc(-n4c(-c5cccnc5N)nc5cc(-c6ccccc6)cnc54)cc3)CC2)nc1 [Example 3, 6-((1-(4-(2-(2-aminopyridin-3-yl)-6-phenyl-3H-imidazo[4,5-b]pyridin-3-yl)benzyl)piperidin-4-yl)oxy)nicotinonitrile] | 600 to 10000
N#Cc1cccnc1OC1CCN(Cc2ccc(-n3c(-c4cccnc4N)nc4ccc(-c5ccccc5)nc43)cc2)CC1 [Example 9, 2-((1-(4-(2-(2-Aminopyridin-3-yl)-5-phenyl-3H-imidazo[4,5-b]pyridin-3-yl)benzyl)piperidin-4-yl)oxy)nicotinonitrile] | 60 to 600
N#Cc1cccnc1C(=O)NCc1ccc(-n2c(-c3cccnc3N)nc3cccnc32)cc1 [Example 101, N-(4-(2-(2-Aminopyridin-3-yl)-3H-imidazo[4,5-b]pyridin-3-yl)benzyl)-3-cyanopicolinamide] | 600 to 10000
N#Cc1cccnc1C(=O)NC1CCN(Cc2ccc(-n3c(-c4cccnc4N)nc4cccnc43)cc2)CC1 [Example 28, N-(1-(4-(2-(2-Aminopyridin-3-yl)-3H-imidazo[4,5-b]pyridin-3-yl)benzyl)piperidin-4-yl)-3-cyanopicolinamide] | 600 to 10000
CC(=O)Nc1cccc(-c2ccc3nc(-c4cccnc4N)n(-c4ccc(CN5CCN(c6nccc(C#N)n6)CC5)cc4)c3n2)c1 [Example 46, N-(3-(2-(2-Aminopyridin-3-yl)-3-(4-((4-(4-cyanopyrimidin-2-yl)piperazin-1-yl)methyl)phenyl)-3H-imidazo[4,5-b]pyridin-5-yl)phenyl)acetamide] | < 15
N#Cc1cncc(C(=O)N2CCN(Cc3ccc(-n4c(-c5cccnc5N)nc5cccnc54)cc3)CC2)c1 [Example 79, 5-(4-(4-(2-(2-Aminopyridin-3-yl)-3H-imidazo[4,5-b]pyridin-3-yl)benzyl)piperazine-1-carbonyl)nicotinonitrile] | 600 to 10000
N#Cc1ccc(NC2CCN(Cc3ccc(-n4c(-c5cccnc5N)nc5ccc(-c6ccccc6)nc54)cc3)CC2)cn1 [Example 84, 5-((1-(4-(2-(2-Aminopyridin-3-yl)-5-phenyl-3H-imidazo[4,5-b]pyridin-3-yl)benzyl)piperidin-4-yl)amino)picolinonitrile] | 15 to 60
N#Cc1cncc(N2CCN(Cc3ccc(-n4c(-c5cccnc5N)nc5ccc(-c6ccccc6)nc54)cc3)CC2)n1 [Example 67, 6-(4-(4-(2-(2-Aminopyridin-3-yl)-5-phenyl-3H-imidazo[4,5-b]pyridin-3-yl)benzyl)piperazin-1-yl)pyrazine-2-carbonitrile] | 60 to 600

The remaining lines, values ahead:

IC50 [nM] | Compound
< 15 | N#Cc1ncnc(N2CCN(Cc3ccc(-n4c(-c5cccnc5N)nc5ccc(N6CCOCC6)nc54)cc3)CC2)n1 [Example 292, 4-(4-(4-(2-(2-Aminopyridin-3-yl)-5-morpholino-3H-imidazo[4,5-b]pyridin-3-yl)benzyl)piperazin-1-yl)-1,3,5-triazine-2-carbonitrile]
< 15 | N#Cc1ncnc(N2CCN(Cc3ccc(-n4c(-c5cccnc5N)nc5ccc(-c6ccccc6F)nc54)cc3)CC2)n1 [Example 312, 4-(4-(4-(2-(2-Aminopyridin-3-yl)-5-(2-fluorophenyl)-3H-imidazo[4,5-b]pyridin-3-yl)benzyl)piperazin-1-yl)-1,3,5-triazine-2-carbonitrile]
15 to 60 | N#Cc1ccnc(N2CCN(Cc3ccc(-n4c(-c5cccnc5N)nc5ccc(-c6ccccc6F)nc54)cc3)CC2)n1 [Example 282, 2-(4-(4-(2-(2-Aminopyridin-3-yl)-5-(2-fluorophenyl)-3H-imidazo[4,5-b]pyridin-3-yl)benzyl)piperazin-1-yl)pyrimidine-4-carbonitrile]
